Source: ChEMBL document CHEMBL3508693 (2016)
Values belong to the compound of their own block, whether it stands above or below them.

Key:
[1] = % aliskiren hemifumarate recovered as M3 in faeces following single oral dose of 300 mg [14C]SPP100 studied in healthy men; format: ADME, organism-based, Feces; conditions: human, in vivo, at 300 mg
[2] = % of radioactivity recovered as M3 in faeces following oral administration of [14C] aliskiren hemifumarate at 100 mg.Kg-1 level in rat; format: ADME, organism-based, Albino HAN:WIST, Feces; conditions: in vivo
[3] = % of radioactivity recovered as M3 in urine following oral administration of [14C] aliskiren hemifumarate at 100 mg.Kg-1 level in rat; format: ADME, organism-based, Albino HAN:WIST; conditions: in vivo
[4] = % aliskiren hemifumarate recovered as M3 in urine following single oral dose of 300 mg [14C]SPP100 studied in healthy men; format: ADME, organism-based; conditions: human, in vivo, at 300 mg
[5] = % aliskiren hemifumarate (0-168h) recovered as M3 in urine following single oral dose of [14C] aliskiren hemifumarate at 3 mg.Kg-1 level in marmoset; format: ADME, organism-based, Callithrix jacchus; conditions: in vivo
[6] = % aliskiren hemifumarate (0-72h) recovered as M3 in faeces following single intravenous dose of [14C] aliskiren hemifumarate at 1 mg.Kg-1 level in marmoset; format: ADME, organism-based, Callithrix jacchus, Feces; conditions: in vivo
[7] = % aliskiren recovered as M3 in urine following single intravenous administration of 10 mg.Kg-1 [14C] aliskiren hemifumarate in male rat; format: ADME, organism-based, HAN:WIST(SPF); conditions: in vivo
[8] = % aliskiren hemifumarate (0-168h) recovered as M3 in urine following single intravenous dose of [14C] aliskiren hemifumarate at 1 mg.Kg-1 level in marmoset; format: ADME, organism-based, Callithrix jacchus; conditions: in vivo
[9] = % of radioactivity recovered as M3 in plasma following oral administration of [14C] aliskiren hemifumarate at 100 mg.Kg-1 level in rat; format: ADME, organism-based, Albino HAN:WIST; conditions: in vivo
[10] = % aliskiren recovered as M3 in bile following single intravenous administration of 10 mg.Kg-1 [14C] aliskiren hemifumarate in male rat; format: ADME, organism-based, HAN:WIST(SPF); conditions: in vivo
[11] = % aliskiren recovered as M3 of receiver rat following duodenal infusion of radioactivity through bile from donor rat treated with single intravenous administration of 10 mg.Kg-1 [14C] aliskiren hemifumarate; format: ADME, organism-based, HAN:WIST(SPF); conditions: in vivo
[12] = % aliskiren recovered as M3 in hydrolysed following single intravenous administration of 10 mg.Kg-1 [14C] aliskiren hemifumarate in male rat; format: ADME, organism-based, HAN:WIST(SPF), Bile; conditions: in vivo
[13] = % of radioactivity recovered as M3 in faeces following intravenous administration of [14C] aliskiren hemifumarate at 10 mg.Kg-1 level in rat; format: ADME, organism-based, Albino HAN:WIST, Feces; conditions: in vivo
[14] = % aliskiren hemifumarate (0-72h) recovered as M3 in faeces following single oral dose of [14C] aliskiren hemifumarate at 3 mg.Kg-1 level in marmoset; format: ADME, organism-based, Callithrix jacchus, Feces; conditions: in vivo
[15] = % of radioactivity recovered as M3 in urine following intravenous administration of [14C] aliskiren hemifumarate at 10 mg.Kg-1 level in rat; format: ADME, organism-based, Albino HAN:WIST; conditions: in vivo
[16] = % aliskiren hemifumarate recovered as M3 in urine and faeces following single oral dose of 300 mg [14C]SPP100 studied in healthy men; format: ADME, organism-based, Urine/Feces; conditions: human, in vivo, at 300 mg
[17] = % of radioactivity recovered as M3 in plasma following intravenous administration of [14C] aliskiren hemifumarate at 10 mg.Kg-1 level in rat; format: ADME, organism-based, Albino HAN:WIST; conditions: in vivo
[18] = % of radioactivity recovered as M1 in urine following intravenous administration of [14C] aliskiren hemifumarate at 10 mg.Kg-1 level in rat; format: ADME, organism-based, Albino HAN:WIST; conditions: in vivo
[19] = % aliskiren recovered as M1 of receiver rat following duodenal infusion of radioactivity through bile from donor rat treated with single intravenous administration of 10 mg.Kg-1 [14C] aliskiren hemifumarate; format: ADME, organism-based, HAN:WIST(SPF); conditions: in vivo
[20] = % of radioactivity recovered as M1 in plasma following oral administration of [14C] aliskiren hemifumarate at 100 mg.Kg-1 level in rat; format: ADME, organism-based, Albino HAN:WIST; conditions: in vivo
[21] = % of radioactivity recovered as M1 in urine following oral administration of [14C] aliskiren hemifumarate at 100 mg.Kg-1 level in rat; format: ADME, organism-based, Albino HAN:WIST; conditions: in vivo
[22] = % aliskiren recovered as M1 in urine following single intravenous administration of 10 mg.Kg-1 [14C] aliskiren hemifumarate in male rat; format: ADME, organism-based, HAN:WIST(SPF); conditions: in vivo
[23] = % of radioactivity recovered as M1 in faeces following intravenous administration of [14C] aliskiren hemifumarate at 10 mg.Kg-1 level in rat; format: ADME, organism-based, Albino HAN:WIST, Feces; conditions: in vivo
[24] = % of radioactivity recovered as M1 in faeces following oral administration of [14C] aliskiren hemifumarate at 100 mg.Kg-1 level in rat; format: ADME, organism-based, Albino HAN:WIST, Feces; conditions: in vivo
[25] = % aliskiren hemifumarate recovered as M1 in urine following single oral dose of 300 mg [14C]SPP100 studied in healthy men; format: ADME, organism-based; conditions: human, in vivo
[26] = % aliskiren hemifumarate recovered as M1 in urine and faeces following single oral dose of 300 mg [14C]SPP100 studied in healthy men; format: ADME, organism-based, Urine/Feces; conditions: human, in vivo, at 300 mg
[27] = % aliskiren recovered as M1 in bile following single intravenous administration of 10 mg.Kg-1 [14C] aliskiren hemifumarate in male rat; format: ADME, organism-based, HAN:WIST(SPF); conditions: in vivo
[28] = % of radioactivity recovered as M1 in plasma following intravenous administration of [14C] aliskiren hemifumarate at 10 mg.Kg-1 level in rat; format: ADME, organism-based, Albino HAN:WIST; conditions: in vivo
[29] = % aliskiren recovered as M1 in hydrolysed following single intravenous administration of 10 mg.Kg-1 [14C] aliskiren hemifumarate in male rat; format: ADME, organism-based, HAN:WIST(SPF), Bile; conditions: in vivo
[30] = % aliskiren hemifumarate recovered as M1 in faeces following single oral dose of 300 mg [14C]SPP100 studied in healthy men; format: ADME, organism-based, Feces; conditions: human, in vivo, at 300 mg

Compound recovery [1]: 0.6%
Compound recovery [2]: <= 2%
Compound recovery [3]: <= 2%
Compound recovery [4]: < 0.1%
Compound recovery [5]: 0.1%
Compound recovery [6]: 17%
Compound recovery [7]: 4.7%
Compound recovery [8]: 0.4%
Compound recovery [9]: <= 2%
Compound recovery [10]: 15.9%
Compound recovery [11]: 15.2%
Compound recovery [12]: 15.5%
Compound recovery [13]: > 2%
Compound recovery [14]: 2%
Compound recovery [15]: <= 2%
Compound recovery [16]: < 0.6%
Structure (SMILES): COc1ccc(C[C@@H](C[C@H](N)[C@@H](O)C[C@H](C(=O)NCC(C)(C)C(N)=O)C(C)C)C(C)C)cc1OCCCO
Compound recovery [17]: OUTCOME = Not detected or not investigated

Compound recovery [18]: <= 2%
Compound recovery [19]: OUTCOME = Not detected
Compound recovery [21]: <= 2%
Compound recovery [22]: 0.8%
Compound recovery [23]: > 2%
Compound recovery [24]: <= 2%
Compound recovery [25]: OUTCOME = Not detected
Compound recovery [26]: 0.1%
Compound recovery [27]: 1.3%
Compound recovery [29]: 2.8%
Compound recovery [30]: 0.1%
Structure (SMILES): COCCCOc1cc(C[C@@H](C[C@H](N)[C@@H](O)C[C@H](C(=O)NCC(C)(C)C(N)=O)C(C)C)C(C)C)ccc1O
Compound recovery [20]: OUTCOME = Not detected or not investigated
Compound recovery [28]: OUTCOME = Not detected or not investigated
